Results reported in the NIST ThermoML archive (doi:10.1016/j.jct.2017.12.023).
± gives the expanded uncertainty stated by the source.

Experiment: xn = mol fraction of the nth substance listed
Settings: 100 kPa, Liquid; for viscosity: Concentric cylinders viscometry; for mass density: Vibrating tube method

CCOS(=O)(=O)[O-].CCn1cc[n+](C)c1 [1-ethyl-3-methylimidazolium ethyl sulfate] + CN1CCCC1=O
Settings | mass density [kg/m3] | viscosity [mPa·s]
288.15 K, x1 = 0.1009 | 1079.2 ± 1.5 | 3.992 ± 0.044
288.15 K, x1 = 0.2012 | 1111.89 ± 1.5 | 7.313 ± 0.08
288.15 K, x1 = 0.3021 | 1138.72 ± 1.5 | 12.42 ± 0.14
288.15 K, x1 = 0.4012 | 1160.76 ± 1.5 | 19.71 ± 0.21
288.15 K, x1 = 0.4973 | 1178.79 ± 1.5 | 29.14 ± 0.31
288.15 K, x1 = 0.596 | 1194.97 ± 1.5 | 42.09 ± 0.45
288.15 K, x1 = 0.6998 | 1209.56 ± 1.5 | 59.32 ± 0.63
288.15 K, x1 = 0.7961 | 1221.74 ± 1.6 | 79 ± 0.93
288.15 K, x1 = 0.8821 | 1231.55 ± 1.6 | 104.25 ± 1.4
288.15 K, x1 = 1 | 1243.07 ± 1.6 | 155.55 ± 2.7
293.15 K, x1 = 0.1009 | 1074.95 ± 1.5 | 3.554 ± 0.039
293.15 K, x1 = 0.2012 | 1107.79 ± 1.5 | 6.338 ± 0.069
293.15 K, x1 = 0.3021 | 1134.75 ± 1.5 | 10.51 ± 0.11
293.15 K, x1 = 0.4012 | 1156.89 ± 1.5 | 16.36 ± 0.18
293.15 K, x1 = 0.4973 | 1175.02 ± 1.5 | 23.79 ± 0.26
293.15 K, x1 = 0.596 | 1191.28 ± 1.5 | 33.7 ± 0.36
293.15 K, x1 = 0.6998 | 1205.95 ± 1.5 | 46.73 ± 0.5
293.15 K, x1 = 0.7961 | 1218.2 ± 1.6 | 61.57 ± 0.66
293.15 K, x1 = 0.8821 | 1228.07 ± 1.6 | 80.25 ± 0.96
293.15 K, x1 = 1 | 1239.66 ± 1.6 | 117.88 ± 1.8
298.15 K, x1 = 0.1009 | 1070.72 ± 1.5 | 3.21 ± 0.036
298.15 K, x1 = 0.2012 | 1103.71 ± 1.5 | 5.637 ± 0.062
298.15 K, x1 = 0.3021 | 1130.79 ± 1.5 | 9.181 ± 0.1
298.15 K, x1 = 0.4012 | 1153.04 ± 1.5 | 14.03 ± 0.15
298.15 K, x1 = 0.4973 | 1171.26 ± 1.5 | 20.08 ± 0.22
298.15 K, x1 = 0.596 | 1187.6 ± 1.5 | 27.95 ± 0.3
298.15 K, x1 = 0.6998 | 1202.35 ± 1.5 | 38.08 ± 0.41
298.15 K, x1 = 0.7961 | 1214.66 ± 1.6 | 49.4 ± 0.53
298.15 K, x1 = 0.8821 | 1224.59 ± 1.6 | 63.39 ± 0.68
298.15 K, x1 = 1 | 1236.27 ± 1.6 | 91.26 ± 1.2
303.15 K, x1 = 0.1009 | 1066.49 ± 1.5 | 2.908 ± 0.032
303.15 K, x1 = 0.2012 | 1099.65 ± 1.5 | 5.01 ± 0.055
303.15 K, x1 = 0.3021 | 1126.85 ± 1.5 | 8.026 ± 0.087
303.15 K, x1 = 0.4012 | 1149.22 ± 1.5 | 12.06 ± 0.13
303.15 K, x1 = 0.4973 | 1167.52 ± 1.5 | 17 ± 0.18
303.15 K, x1 = 0.596 | 1183.95 ± 1.5 | 23.38 ± 0.25
303.15 K, x1 = 0.6998 | 1198.77 ± 1.5 | 31.46 ± 0.34
303.15 K, x1 = 0.7961 | 1211.15 ± 1.5 | 40.33 ± 0.43
303.15 K, x1 = 0.8821 | 1221.13 ± 1.6 | 51.1 ± 0.53
303.15 K, x1 = 1 | 1232.87 ± 1.6 | 72.1 ± 0.81
308.15 K, x1 = 0.1009 | 1062.28 ± 1.5 | 2.649 ± 0.03
308.15 K, x1 = 0.2012 | 1095.59 ± 1.5 | 4.488 ± 0.049
308.15 K, x1 = 0.3021 | 1122.93 ± 1.5 | 7.071 ± 0.077
308.15 K, x1 = 0.4012 | 1145.41 ± 1.5 | 10.47 ± 0.11
308.15 K, x1 = 0.4973 | 1163.8 ± 1.5 | 14.56 ± 0.16
308.15 K, x1 = 0.596 | 1180.31 ± 1.5 | 19.81 ± 0.21
308.15 K, x1 = 0.6998 | 1195.21 ± 1.5 | 26.22 ± 0.28
308.15 K, x1 = 0.7961 | 1207.65 ± 1.5 | 33.3 ± 0.36
308.15 K, x1 = 0.8821 | 1217.69 ± 1.6 | 41.58 ± 0.45
308.15 K, x1 = 1 | 1229.49 ± 1.6 | 57.98 ± 0.61
313.15 K, x1 = 0.1009 | 1058.09 ± 1.5 | 2.432 ± 0.027
313.15 K, x1 = 0.2012 | 1091.55 ± 1.5 | 4.013 ± 0.044
313.15 K, x1 = 0.3021 | 1119.03 ± 1.5 | 6.231 ± 0.068
313.15 K, x1 = 0.4012 | 1141.61 ± 1.5 | 9.114 ± 0.099
313.15 K, x1 = 0.4973 | 1160.1 ± 1.5 | 12.5 ± 0.14
313.15 K, x1 = 0.596 | 1176.69 ± 1.5 | 16.76 ± 0.18
313.15 K, x1 = 0.6998 | 1191.67 ± 1.5 | 22.04 ± 0.24
313.15 K, x1 = 0.7961 | 1204.17 ± 1.5 | 27.72 ± 0.3
313.15 K, x1 = 0.8821 | 1214.27 ± 1.6 | 34.42 ± 0.37
313.15 K, x1 = 1 | 1226.13 ± 1.6 | 47.26 ± 0.51
318.15 K, x1 = 0.1009 | 1053.91 ± 1.5 | 2.231 ± 0.025
318.15 K, x1 = 0.2012 | 1087.53 ± 1.5 | 3.668 ± 0.04
318.15 K, x1 = 0.3021 | 1115.14 ± 1.5 | 5.615 ± 0.061
318.15 K, x1 = 0.4012 | 1137.84 ± 1.5 | 8.113 ± 0.088
318.15 K, x1 = 0.4973 | 1156.42 ± 1.5 | 11 ± 0.12
318.15 K, x1 = 0.596 | 1173.09 ± 1.5 | 14.57 ± 0.16
318.15 K, x1 = 0.6998 | 1188.15 ± 1.5 | 18.93 ± 0.2
318.15 K, x1 = 0.7961 | 1200.71 ± 1.5 | 23.58 ± 0.25
318.15 K, x1 = 0.8821 | 1210.86 ± 1.5 | 29 ± 0.31
318.15 K, x1 = 1 | 1222.79 ± 1.6 | 39.25 ± 0.42
323.15 K, x1 = 0.1009 | 1049.74 ± 1.5 | 2.061 ± 0.023
323.15 K, x1 = 0.2012 | 1083.52 ± 1.5 | 3.344 ± 0.037
323.15 K, x1 = 0.3021 | 1111.25 ± 1.5 | 5.053 ± 0.055
323.15 K, x1 = 0.4012 | 1134.08 ± 1.5 | 7.216 ± 0.078
323.15 K, x1 = 0.4973 | 1152.75 ± 1.5 | 9.678 ± 0.1
323.15 K, x1 = 0.596 | 1169.51 ± 1.5 | 12.7 ± 0.14
323.15 K, x1 = 0.6998 | 1184.64 ± 1.5 | 16.34 ± 0.18
323.15 K, x1 = 0.7961 | 1197.26 ± 1.5 | 20.2 ± 0.22
323.15 K, x1 = 0.8821 | 1207.47 ± 1.5 | 24.63 ± 0.27
323.15 K, x1 = 1 | 1219.46 ± 1.6 | 32.94 ± 0.35
328.15 K, x1 = 0.1009 | 1045.59 ± 1.5 | 1.912 ± 0.022
328.15 K, x1 = 0.2012 | 1079.52 ± 1.5 | 3.064 ± 0.034
328.15 K, x1 = 0.3021 | 1107.38 ± 1.5 | 4.575 ± 0.05
328.15 K, x1 = 0.4012 | 1130.34 ± 1.5 | 6.458 ± 0.07
328.15 K, x1 = 0.4973 | 1149.1 ± 1.5 | 8.585 ± 0.093
328.15 K, x1 = 0.596 | 1165.95 ± 1.5 | 11.16 ± 0.12
328.15 K, x1 = 0.6998 | 1181.15 ± 1.5 | 14.23 ± 0.15
328.15 K, x1 = 0.7961 | 1193.83 ± 1.5 | 17.46 ± 0.19
328.15 K, x1 = 0.8821 | 1204.1 ± 1.5 | 21.14 ± 0.23
328.15 K, x1 = 1 | 1216.16 ± 1.6 | 27.96 ± 0.3
333.15 K, x1 = 0.1009 | 1041.42 ± 1.5 | 1.782 ± 0.02
333.15 K, x1 = 0.2012 | 1075.53 ± 1.5 | 2.804 ± 0.031
333.15 K, x1 = 0.3021 | 1103.53 ± 1.5 | 4.154 ± 0.045
333.15 K, x1 = 0.4012 | 1126.61 ± 1.5 | 5.808 ± 0.063
333.15 K, x1 = 0.4973 | 1145.47 ± 1.5 | 7.681 ± 0.083
333.15 K, x1 = 0.596 | 1162.4 ± 1.5 | 9.893 ± 0.11
333.15 K, x1 = 0.6998 | 1177.67 ± 1.5 | 12.51 ± 0.14
333.15 K, x1 = 0.7961 | 1190.42 ± 1.5 | 15.27 ± 0.16
333.15 K, x1 = 0.8821 | 1200.75 ± 1.5 | 18.36 ± 0.2
333.15 K, x1 = 1 | 1212.86 ± 1.5 | 24.09 ± 0.26
